Results as given in patent publication US9193954B2, “Methods and compositions for mesenchymal stem cell proliferation” (priority 2011, dated 2015).

How the values were obtained:
Format in all cases: cell-based, human
hMSCs [1] = assay: LIVE/DEAD confocal imaging of two-dimensional BIO-treated hMSC cultures; conditions: no detectable dead cells
Experimental: FIG. 4 Schematic representation of 41 day hMSC monolayer culture after 24 hr exposure to BIO-containing media (A). Cells were trypsinized and manually counted on days 0, 1, 3, 6, 19, 27, 34, 37, and 41 and shown to undergo a dose-dependent, BIO-mediated increase in proliferation (B).
hMSC cell layer thickness was measured using the z-directional controls of a FV1000 Olympus Laser Scanning Confocal Microscope. On days 1, 14, and 40 cells, seeded on optically clear glass bottom 24-well culture plates (MatTek, Ashland, Mass.) were stained using a fluorescent LIVE/DEAD Viability/Cytotoxicity kit (Invitrogen). The focal plane of the microscope was adjusted to the cell-plate interface and set to zero. Using the z-directional controls the focal plane was raised until the live fluorescently stained cells were no longer visible at which point the cell layer thickness was recorded.

hMSCs [2] = assay: Media induced differentiation of BIO-treated hMSCs (histology and Cbfa1, Sox9, PPARγ expression)
Experimental: Dev Cell. […] After 24 hrs cell media was replaced and cells were allowed to proliferate over three weeks. After three weeks BIO-treated hMSCs were cultured for three weeks in standard differentiation-inducing media (FIG. 6a). For osteogenic differentiation hMSCs were grown in normal growth media with osteogenic supplements (100 nM dexamethasone, 10 mM β-glycerophosphate, 50 μM ascorbic acid-2-phosphate). […] Differentiated two-dimensional cell cultures were fixed in 24-well tissue culture plates for 48 hrs in 4% paraformaldehyde and the monolayers were stained for mineralization (von Kossa, osteogenic), or the presence of lipid droplets (oil red o, adipogenic). Undifferentiated cultures were also stained as negative controls. Images were taken on a Motic AE20 inverted light microscope using a Canon EOS Rebel T2i with an eyepiece modification.
For chondrogenic differentiation, hMSCs were seeded at a density of 5,000 cell/cm^2 in T-75 tissue culture flasks, allowed to become adherent, and treated with BIO containing growth media for 24 hrs. After 24 hrs, cell media was replaced and cells were allowed to proliferate over three weeks (FIG. 6a). […] Pellet cultures were fixed for 48 hrs in 4% paraformaldehyde, cryosectioned, and stained for glycosaminoglycan production (toluidine blue, chondrogenic). Stained sections were imaged as described above.
(§1) RT-PCR was used to assess gene expression of hMSCs over time. At days: 0 (before BIO treatment), 1, 3, 6, 19, 29, 34, 37, and 41, samples were lysed and total RNA was isolated (ENZA Total RNA Kit, Omega). Reverse transcription was performed using the iScript cDNA Synthesis Kit (Bio-Rad). The reverse transcription reaction was incubated at 25° C. for 5 min, 42° C. for 30 min, and terminated at 85° C. for 5 min. PCR was performed using a CFX96 Real-Time PCR System (Bio-Rad), monitoring sybrgreen products (SsoFastEvaGreen Master Mix, Bio-Rad). Primers for β-actin, sex determining region Y-box 2 (Sox2), Nanog homobox (Nanog), and octamer-binding transcription factor 4 (Oct4), core-binding factor subunit alpha-1 (Cbfa1, also known as Runx2), sex determining region Y-box 9 (Sox9), and peroxisome proliferator-activated receptor gamma (PPARγ) were used (Table 2). The PCR parameters used were as follows: hold at 95° C. for 5 min, followed by 40 cycles of: 95° C. for 15 sec denaturation, 60° C. (β-actin, Sox2, Sox9), or 57° C. (Nanog, Oct4, Cbfa1), or 55° C. (PPARγ) for 60 sec annealing, and 72° C. for 20 sec extension. Threshold cycle (CT) analysis was used to quantify PCR products normalized to the cellular housekeeping gene β-actin. Relative gene quantification was performed using the Pfaffl Method, taking into account the variation between primer efficiencies.

PEG-encapsulated hMSCs = assay: LIVE/DEAD confocal imaging of PEG-encapsulated BIO-treated hMSC cultures; conditions: no detectable dead cells
From the text: FIG. 7 Schematic representation of 18 day PEG-encapsulated hMSC culture after 24 hr exposure to BIO-containing media (A). Cell DNA concentration was quantified on days 0, 1, 5, 12, and 18 and shown to undergo a dose-dependent, BIO-mediated increase in proliferation (B), as previously shown in two-dimensional cultures. Representative LIVE/DEAD confocal images of PEG-encapsulated BIO-treated hMSC cultures (C).
Encapsulated hMSC viability, BIO treatment, and assessment of gene expression was performed as described in Section 2.3 with exception of cell lysate collection. For assessment of gene expression hMSC-PEG constructs were homogenized in lysis buffer and centrifuged to pellet polymerized PEG. The supernatant was then collected for analysis.

[3] = test system: markers of undifferentiated stem cells, Sox2, Nanog, and Oct4; assay: RT-PCR of Sox2, Nanog, Oct4 in two-dimensionally cultured BIO-treated hMSCs, normalized to β-actin
Experimental: as §1
To more closely examine BIO's effects on hMSCs gene expression profiles for the markers of undifferentiated stem cells sex determining region Y-box 2 (Sox2), Nanog homobox (Nanog), and octamer-binding transcription factor 4 (Oct4) were monitored and normalized to the housekeeping gene β-actin. […] RNA was collected just before, and 1, 3, 6, 19, 27, 34, 37, and 41 days after the BIO treatment Results were quantified over time and again, normalized to both the housekeeping gene β-actin and untreated controls (0 μM BIO), and the results are shown in FIG. 5.

[4] = 5 μM BIO, adipogenic-differentiated hMSCs
[5] = 5 μM BIO, osteogenic differentiated hMSCs

SMILES: O=C1Nc2cc(Br)ccc2/C1=C1/Nc2ccccc2/C1=N\O [BIO, 6-bromoindirubin-3′-oxime]
- live cells (LIVE/DEAD imaging) (hMSCs [1]): ~100%
- histological analysis of differentiation (von Kossa, toluidine blue, oil red o), BIO-treated versus untreated (hMSCs [2]; 5 μM BIO 24 hrs, 21 days proliferation, 3 weeks differentiation media): uniform mineralization
- PPARγ expression over undifferentiated controls (hMSCs [2]; [4]): 31.2 fold
- increase in PPARγ expression compared to differentiated non-BIO-treated (0 μM) controls (hMSCs [2]; [4]): 5.0 fold
- Sox9 expression compared with undifferentiated controls (hMSCs [2]; 5 μM BIO, chondrogenic-differentiated hMSCs, not statistically significant): 0.6 fold
- Cbfa1 expression over undifferentiated controls (hMSCs [2]; [5]): 3.9 fold
- increase in Cbfa1 expression compared to differentiated non-BIO-treated (0 μM) controls (hMSCs [2]; [5]): 2.1 fold
- live cells (LIVE/DEAD imaging) (PEG-encapsulated hMSCs): ~100%
- Nanog gene expression compared to untreated control ([3]; 2 μM BIO, day 1, 2D): 5.4 fold
- Oct4 gene expression compared to untreated control ([3]; 2 μM BIO, day 1, 2D): 5.1 fold
- Sox2 gene expression compared to untreated control ([3]; 2 μM BIO, day 1, 2D): 7.1 fold
- Nanog gene expression compared to untreated control ([3]; 2 μM BIO, day 3, 2D): 1.0 fold
- Oct4 gene expression compared to untreated control ([3]; 2 μM BIO, day 3, 2D): 3.4 fold
- Sox2 gene expression compared to untreated control ([3]; 2 μM BIO, day 3, 2D): 4.4 fold
- Nanog gene expression compared to untreated control ([3]; 5 μM BIO, day 1, 2D): 15.3 fold
- Oct4 gene expression compared to untreated control ([3]; 5 μM BIO, day 1, 2D): 16.9 fold
- Sox2 gene expression compared to untreated control ([3]; 5 μM BIO, day 1, 2D): 96.4 fold
- Nanog gene expression compared to untreated control ([3]; 5 μM BIO, day 3, 2D): 4.8 fold
- Oct4 gene expression compared to untreated control ([3]; 5 μM BIO, day 3, 2D): 9.8 fold
- Sox2 gene expression compared to untreated control ([3]; 5 μM BIO, day 3, 2D): 17.7 fold
- increase of Nanog expression relative to untreated controls ([3]; day 1, 2 uM BIO): 797%
- increase of Oct4 expression relative to untreated controls ([3]; day 1, 2 uM BIO): 545%
- increase of Sox2 expression relative to untreated controls ([3]; day 1, 2 uM BIO): 677%
- increase of Nanog expression relative to untreated controls ([3]; day 1, 5 uM BIO): 2247%
- increase of Oct4 expression relative to untreated controls ([3]; day 1, 5 uM BIO): 1800%
- increase of Sox2 expression relative to untreated controls ([3]; day 1, 5 uM BIO): 9180%
- increase of Nanog expression relative to untreated controls ([3]; day 3, 2 uM BIO): 71%
- increase of Oct4 expression relative to untreated controls ([3]; day 3, 2 uM BIO): 263%
- increase of Sox2 expression relative to untreated controls ([3]; day 3, 2 uM BIO): 312%
- increase of Nanog expression relative to untreated controls ([3]; day 3, 5 uM BIO): 324%
- increase of Oct4 expression relative to untreated controls ([3]; day 3, 5 uM BIO): 755%
- increase of Sox2 expression relative to untreated controls ([3]; day 3, 5 uM BIO): 1238%
